# Data reported in patent publication US5801180A, “Quinazoline derivatives” (priority 1991, dated 1998).
# Target: T1, cGMP-PDE prepared from the swine aeorta (Sus scrofa, UniProt A0A287B475)
# T1 construct: The swine aeorta was sliced; from tissue; host or cells: swine aorta, 100000×g supernatant, DEAE-Toyopearl 650S fraction
# Experiment: Enzyme inhibiting action with the use of cGMP-PDE prepared from the swine aorta
# Type: biochemical
# Conditions: CaM-independent cGMP-PDE, 1 mM EGTA, 1 μM cGMP substrate, DMSO 4% or below
# Summary of the method: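 CaM-independent cGMP-PDE isolated from pig aorta supernatant by DEAE anion-exchange chromatography. Activity measured with 1 μM cGMP substrate in presence of 1 mM EGTA, following the Thompson method. Compounds added from DMSO, final DMSO 4% or below.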
row,Structure (SMILES),IC50
1,"COc1ccc2nc(O)nc(NCc3ccc4c(c3)OCO4)c2c1 [Example 140, 2-Hydroxy-4-(3,4-methylenedioxybenzyl)amino-6-methoxyquinazoline]",680 nM
2,"COc1nc2ccc(Cl)cc2n1Cc1ccc2c(c1)OCO2 [Example 266, 6-Chloro-2-methoxy-1-(3,4-methylenedioxybenzyl)benzimidazole]",110 nM
3,"CSc1nc(NCc2ccc3c(c2)OCO3)c2cc(Cl)ccc2n1 [Example 180, 2-Methylthio-4-(3,4-methylenedioxybenzyl)amino-6-chloroquinazoline]",9 nM
4,"CSc1ccc2ncnc(NCc3ccc4nc[nH]c4c3)c2c1 [Example 52, 4-(Benzimidazol-5-ylmethyl)amino-6-methylthioquinazoline]",69 nM
5,"COc1ccc(CNc2nc(N3CCC(C(=O)O)CC3)nc3ccc(C#N)cc23)cc1Cl [Example 228, 2-(4-Carboxypiperidino)-4-(3-chloro-4-methoxybenzyl)amino-6-cyanoquinazoline]",0.52 nM
6,"Clc1ccc2nc(-n3ccnc3)n(Cc3ccc4c(c3)OCO4)c2c1 [Example 278, 6-Chloro-2-(imidazol-1-yl)-1-(3,4-methylenedioxybenzyl)benzimidazole]",250 nM
7,"COCCN(Cc1ccc2c(c1)OCO2)c1ncnc2ccc(SC)cc12 [Example 53, 4-[N-(2-Methoxyethyl)-(3,4-methylenedioxybenzyl)amino]-6-methylthioquinazoline]",120 nM
